Assay results reported in PubChem BioAssay AID248 (DTP/NCI, 2004).
“And” between values parts separate entries of the source, which are not always exact repeats. Identical values can stand only once. Toxic doses and inconclusive results are not listed. Cut-off read from the data, not from the text of the source: active = T/C of 150% or more; inactive = T/C below 125%.

Test system: L1210 leukemia ip in BDF1 mice, survival T/C
Assay: NCI In Vivo Anticancer Drug Screen. Data for tumor model L1210 Leukemia (intraperitoneal) in B6D2F1 (BDF1) mice
Conditions: endpoint: mean survival time, higher = longer survival
In short: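 Mice bearing the transplanted tumor received compound or vehicle. Survival of the treated group was divided by that of the vehicle-treated control group to give the ratio.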

[1] = dose: 100.0 mg/kg/injection, schedule: Q01DX001 (ip), vehicle: Klucel (hydroxypropylcellulose) (HPC)
[2] = dose: 200.0 mg/kg/injection, schedule: Q01DX001 (ip), vehicle: Klucel (hydroxypropylcellulose) (HPC)
[3] = dose: 100.0 mg/kg/injection, schedule: Q01DX009 (ip), vehicle: Klucel (hydroxypropylcellulose) (HPC)
[4] = dose: 200.0 mg/kg/injection, schedule: Q01DX009 (ip), vehicle: Klucel (hydroxypropylcellulose) (HPC)
[5] = dose: 400.0 mg/kg/injection, schedule: Q01DX009 (ip), vehicle: Klucel (hydroxypropylcellulose) (HPC)
[6] = dose: 12.5 mg/kg/injection, schedule: Q01DX009 (ip), vehicle: Klucel (hydroxypropylcellulose) (HPC)
[7] = dose: 12.5 mg/kg/injection, schedule: Q04DX003 (ip), vehicle: Klucel (hydroxypropylcellulose) (HPC)
[8] = dose: 25.0 mg/kg/injection, schedule: Q01DX009 (ip), vehicle: Klucel (hydroxypropylcellulose) (HPC)
[9] = dose: 25.0 mg/kg/injection, schedule: Q04DX003 (ip), vehicle: Klucel (hydroxypropylcellulose) (HPC)
[10] = dose: 50.0 mg/kg/injection, schedule: Q01DX009 (ip), vehicle: Klucel (hydroxypropylcellulose) (HPC)
[11] = dose: 50.0 mg/kg/injection, schedule: Q04DX003 (ip), vehicle: Klucel (hydroxypropylcellulose) (HPC)
[12] = dose: 100.0 mg/kg/injection, schedule: Q04DX003 (ip), vehicle: saline
[13] = dose: 100.0 mg/kg/injection, schedule: Q01DX009 (ip), vehicle: acetone
[14] = dose: 100.0 mg/kg/injection, schedule: Q04DX003 (ip), vehicle: saline with Tween-80
[15] = dose: 200.0 mg/kg/injection, schedule: Q04DX003 (ip), vehicle: saline with Tween-80
[16] = dose: 100.0 mg/kg/injection, schedule: Q04DX003 (ip), vehicle: Klucel (hydroxypropylcellulose) (HPC)
[17] = dose: 200.0 mg/kg/injection, schedule: Q04DX003 (ip), vehicle: Klucel (hydroxypropylcellulose) (HPC)
[18] = dose: 400.0 mg/kg/injection, schedule: Q04DX003 (ip), vehicle: Klucel (hydroxypropylcellulose) (HPC)

Measured: T/C

CC(C)C[CH2][Pb]([Cl])([CH2]CC(C)C)[CH2]CC(C)C
inactive: dose: 0.03 mg/kg/injection, schedule: Q04DX002 (ip), vehicle: saline 96 % of control | dose: 0.05 mg/kg/injection, schedule: Q04DX002 (ip), vehicle: saline 102 % of control | dose: 0.1 mg/kg/injection, schedule: Q04DX002 (ip), vehicle: saline 96 % of control | dose: 0.2 mg/kg/injection, schedule: Q04DX002 (ip), vehicle: other 111 % of control | dose: 0.2 mg/kg/injection, schedule: Q04DX003 (ip), vehicle: other 101 % of control | dose: 0.78 mg/kg/injection, schedule: Q04DX003 (ip), vehicle: other 95 % of control

CCc1ccc(NC(=O)c2ccc(Cl)cc2Cl)cc1
inactive: dose: 100.0 mg/kg/injection, schedule: Q04DX002 (ip), vehicle: Klucel (hydroxypropylcellulose) (HPC) 97 % of control | dose: 200.0 mg/kg/injection, schedule: Q04DX002 (ip), vehicle: Klucel (hydroxypropylcellulose) (HPC) 87 % of control | dose: 400.0 mg/kg/injection, schedule: Q04DX002 (ip), vehicle: Klucel (hydroxypropylcellulose) (HPC) 91 % of control

CCCCCCCCCCCC(=O)[O][Sn]([CH2]c1ccccc1)([CH2]c1ccccc1)[CH2]c1ccccc1
inactive: dose: 0.5 mg/kg/injection, schedule: Q04DX003 (ip), vehicle: other 99 % of control | dose: 0.75 mg/kg/injection, schedule: Q01DX009 (ip), vehicle: other 97 % of control | dose: 1.0 mg/kg/injection, schedule: Q04DX003 (ip), vehicle: other 99 % of control | dose: 1.5 mg/kg/injection, schedule: Q01DX009 (ip), vehicle: other 94 % of control | dose: 3.0 mg/kg/injection, schedule: Q01DX009 (ip), vehicle: other 97 % of control | dose: 3.0 mg/kg/injection, schedule: Q04DX003 (ip), vehicle: other 100 % of control

COc1cc([N+](=O)[O-])cc(OC)c1OC
inactive: [1] 95 % of control | [2] 92 % of control | dose: 400.0 mg/kg/injection, schedule: Q01DX001 (ip), vehicle: Klucel (hydroxypropylcellulose) (HPC) 97 % of control

O=C(/C=C/c1ccc(Cl)cc1)c1ccc(Br)cc1
inactive: [3] 94 % of control | [4] 94 % of control | [5] 92 % of control

O=C(CCN1CC1)Nc1ccccc1
inactive: dose: 3.12 mg/kg/injection, schedule: Q01DX009 (ip), vehicle: Klucel (hydroxypropylcellulose) (HPC) 110 % of control | dose: 6.25 mg/kg/injection, schedule: Q01DX009 (ip), vehicle: Klucel (hydroxypropylcellulose) (HPC) 108 % of control | [6] 106 % of control | [7] 107 % of control | [8] 106 % of control | [9] 91 % of control | [10] 102 % of control | [11] 95 % of control | [12] 91 % of control

COC(=O)c1cc(C)c(C(=O)OC)cc1C
inactive: dose: 100.0 mg/kg/injection, schedule: Q01DX009 (ip), vehicle: saline sonified 97 % of control | dose: 200.0 mg/kg/injection, schedule: Q01DX009 (ip), vehicle: saline sonified 91 % of control | dose: 400.0 mg/kg/injection, schedule: Q01DX009 (ip), vehicle: saline sonified 88 % of control

CCCCN(C)N=Nc1cn(C2OC(CO)C(O)C2O)c(=O)n(C)c1=O (stereo unspecified)
inactive: dose: 100.0 mg/kg/injection, schedule: Q01DX005 (ip), vehicle: saline 119 % of control

Cc1cc(P(=O)(O)O)ccc1Cl
inactive: [13] 87 % of control | dose: 200.0 mg/kg/injection, schedule: Q01DX009 (ip), vehicle: acetone 90 % of control

Cc1ccc(NC2OC(CO)C(O)C(O)C2O)cc1 (stereo unspecified)
inactive: dose: 75.0 mg/kg/injection, schedule: Q01DX001 (ip), vehicle: steriod suspending solution 99 % of control | dose: 150.0 mg/kg/injection, schedule: Q01DX001 (ip), vehicle: steriod suspending solution 94 % of control | dose: 300.0 mg/kg/injection, schedule: Q01DX001 (ip), vehicle: steriod suspending solution 94 % of control

CCCCCCCC[n+]1cccc(C(N)=O)c1
inactive: [14] 98 % of control | [15] 89 % of control

O=C(O)c1cccc(NC(C(=O)c2ccccc2)c2ccccc2)c1 (stereo unspecified)
inactive: dose: 50.0 mg/kg/injection, schedule: Q01DX001 (ip), vehicle: Klucel (hydroxypropylcellulose) (HPC) 102 % of control | [1] 102 % of control | [2] 102 % of control

COc1c(C(C)(C)C)cc([N+](=O)[O-])c(C)c1[N+](=O)[O-]
inactive: [3] 98 % of control | [16] 103 % of control | [4] 103 % of control | [17] 102 % of control | [5] 96 % of control | [18] 94 % of control

O=C(N/N=C/c1ccc2c(c1)OCO2)c1ccccc1
inactive: [3] 93 % of control | [16] 101 % of control | [4] 96 % of control | [17] 104 % of control | [5] 86 % of control | [18] 98 % of control

S=C1NC(c2cccc(Cl)c2)N2C(=S)NC(c3cccc(Cl)c3)N12 (stereo unspecified)
inactive: dose: 25.0 mg/kg/injection, schedule: Q01DX009 (ip), vehicle: gum acacia 95 % of control | dose: 50.0 mg/kg/injection, schedule: Q01DX009 (ip), vehicle: gum acacia 95 % of control | dose: 100.0 mg/kg/injection, schedule: Q01DX009 (ip), vehicle: gum acacia 101 % of control | dose: 100.0 mg/kg/injection, schedule: Q04DX003 (ip), vehicle: gum acacia 101 % of control | dose: 200.0 mg/kg/injection, schedule: Q01DX009 (ip), vehicle: gum acacia 88 % of control | dose: 200.0 mg/kg/injection, schedule: Q04DX003 (ip), vehicle: gum acacia 93 % of control | dose: 400.0 mg/kg/injection, schedule: Q01DX009 (ip), vehicle: gum acacia 87 % of control | dose: 400.0 mg/kg/injection, schedule: Q04DX003 (ip), vehicle: gum acacia 97 % of control

COc1ccc(CN(CCN(C)C)c2ccccn2)cc1
inactive: [6] 97 % of control | [7] 94 % of control | [8] 94 % of control | [9] 93 % of control | [10] 93 % of control | [11] 93 % of control and 94 % of control

COc1cc(CC2COCC2Cc2ccc3c(c2)OCO3)cc(OC)c1OC (stereo unspecified)
inactive: dose: 25.0 mg/kg/injection, schedule: Q01DX009 (ip), vehicle: acetone 110 % of control | dose: 50.0 mg/kg/injection, schedule: Q01DX009 (ip), vehicle: acetone 101 % of control | [13] 103 % of control

O=S(/C=C/c1ccccc1)c1ccc(Br)cc1 (stereo unspecified)
inactive: [12] 100 % of control | dose: 200.0 mg/kg/injection, schedule: Q04DX003 (ip), vehicle: saline 93 % of control | dose: 400.0 mg/kg/injection, schedule: Q04DX003 (ip), vehicle: saline 100 % of control

CCC#CC(=O)OCCCCCC
inactive: dose: 100.0 mg/kg/injection, schedule: Q04DX002 (ip), vehicle: saline 107 % of control | dose: 200.0 mg/kg/injection, schedule: Q04DX002 (ip), vehicle: saline 100 % of control | dose: 400.0 mg/kg/injection, schedule: Q04DX002 (ip), vehicle: saline 103 % of control

CC(C)=CCn1c(=O)c2c(ncn2C)n(C)c1=O
inactive: [14] 98 % of control | [15] 98 % of control
